We go through twelve compounds from ChEMBL document CHEMBL4196108, “5-Aroylindoles Act as Selective Histone Deacetylase 6 Inhibitors Ameliorating Alzheimer's Disease Phenotypes” (J Med Chem, 2018).

The target in assay [1] is T1, Polyamine deacetylase HDAC10 (Homo sapiens, UniProt Q969S8).
T1 sequence (Q969S8 whole entry): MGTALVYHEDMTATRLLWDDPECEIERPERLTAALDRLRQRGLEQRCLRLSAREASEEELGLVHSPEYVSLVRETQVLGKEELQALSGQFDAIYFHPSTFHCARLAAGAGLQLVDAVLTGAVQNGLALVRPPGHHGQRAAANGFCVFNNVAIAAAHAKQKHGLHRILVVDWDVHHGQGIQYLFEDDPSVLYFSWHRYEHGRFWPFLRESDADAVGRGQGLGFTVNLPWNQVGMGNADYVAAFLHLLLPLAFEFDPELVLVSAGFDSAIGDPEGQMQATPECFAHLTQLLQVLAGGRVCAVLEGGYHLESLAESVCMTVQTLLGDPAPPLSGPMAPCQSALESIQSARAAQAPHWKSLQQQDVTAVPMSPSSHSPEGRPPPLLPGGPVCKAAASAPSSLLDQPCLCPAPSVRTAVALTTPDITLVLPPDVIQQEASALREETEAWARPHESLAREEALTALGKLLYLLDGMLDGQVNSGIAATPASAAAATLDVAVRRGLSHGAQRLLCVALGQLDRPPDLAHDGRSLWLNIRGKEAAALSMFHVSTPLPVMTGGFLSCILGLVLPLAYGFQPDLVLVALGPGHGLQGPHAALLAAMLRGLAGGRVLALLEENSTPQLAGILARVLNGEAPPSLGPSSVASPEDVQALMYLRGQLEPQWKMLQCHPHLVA
As to the kind of experiment: Inhibition of human HDAC10 using RHKKAc peptide as substrate.

For another assay, the target named is Histone deacetylase 1 (Homo sapiens, UniProt Q13547). Kind of assay: Inhibition of human HDAC1 using RHKKAc peptide as substrate.
For the next assay, the target named is Histone deacetylase 2 (Homo sapiens, UniProt Q92769). As to the kind of experiment: Inhibition of human HDAC2 using RHKKAc peptide as substrate.
A further assay concerns the target Histone deacetylase 3 (Homo sapiens, UniProt O15379).
The target in the next assay is T2, Histone deacetylase 8 (Homo sapiens, UniProt Q9BY41).
T2 sequence (Q9BY41 whole entry): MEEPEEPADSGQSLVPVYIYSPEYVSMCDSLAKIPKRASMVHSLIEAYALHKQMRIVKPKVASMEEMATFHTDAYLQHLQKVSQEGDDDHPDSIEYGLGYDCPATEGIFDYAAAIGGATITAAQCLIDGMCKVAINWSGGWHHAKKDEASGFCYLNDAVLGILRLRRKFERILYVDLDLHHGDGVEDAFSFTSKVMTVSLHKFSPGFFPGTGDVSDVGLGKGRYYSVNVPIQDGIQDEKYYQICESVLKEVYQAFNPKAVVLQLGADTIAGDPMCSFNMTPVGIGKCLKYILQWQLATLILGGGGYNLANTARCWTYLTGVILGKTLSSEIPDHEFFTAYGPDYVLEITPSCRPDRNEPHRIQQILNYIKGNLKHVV
Kind of assay: Inhibition of human HDAC8 using RHKAcKAc peptide as substrate.

Assay [2] addresses T3, Protein deacetylase HDAC6 (Homo sapiens, UniProt Q9UBN7).
T3 sequence (Q9UBN7 whole entry): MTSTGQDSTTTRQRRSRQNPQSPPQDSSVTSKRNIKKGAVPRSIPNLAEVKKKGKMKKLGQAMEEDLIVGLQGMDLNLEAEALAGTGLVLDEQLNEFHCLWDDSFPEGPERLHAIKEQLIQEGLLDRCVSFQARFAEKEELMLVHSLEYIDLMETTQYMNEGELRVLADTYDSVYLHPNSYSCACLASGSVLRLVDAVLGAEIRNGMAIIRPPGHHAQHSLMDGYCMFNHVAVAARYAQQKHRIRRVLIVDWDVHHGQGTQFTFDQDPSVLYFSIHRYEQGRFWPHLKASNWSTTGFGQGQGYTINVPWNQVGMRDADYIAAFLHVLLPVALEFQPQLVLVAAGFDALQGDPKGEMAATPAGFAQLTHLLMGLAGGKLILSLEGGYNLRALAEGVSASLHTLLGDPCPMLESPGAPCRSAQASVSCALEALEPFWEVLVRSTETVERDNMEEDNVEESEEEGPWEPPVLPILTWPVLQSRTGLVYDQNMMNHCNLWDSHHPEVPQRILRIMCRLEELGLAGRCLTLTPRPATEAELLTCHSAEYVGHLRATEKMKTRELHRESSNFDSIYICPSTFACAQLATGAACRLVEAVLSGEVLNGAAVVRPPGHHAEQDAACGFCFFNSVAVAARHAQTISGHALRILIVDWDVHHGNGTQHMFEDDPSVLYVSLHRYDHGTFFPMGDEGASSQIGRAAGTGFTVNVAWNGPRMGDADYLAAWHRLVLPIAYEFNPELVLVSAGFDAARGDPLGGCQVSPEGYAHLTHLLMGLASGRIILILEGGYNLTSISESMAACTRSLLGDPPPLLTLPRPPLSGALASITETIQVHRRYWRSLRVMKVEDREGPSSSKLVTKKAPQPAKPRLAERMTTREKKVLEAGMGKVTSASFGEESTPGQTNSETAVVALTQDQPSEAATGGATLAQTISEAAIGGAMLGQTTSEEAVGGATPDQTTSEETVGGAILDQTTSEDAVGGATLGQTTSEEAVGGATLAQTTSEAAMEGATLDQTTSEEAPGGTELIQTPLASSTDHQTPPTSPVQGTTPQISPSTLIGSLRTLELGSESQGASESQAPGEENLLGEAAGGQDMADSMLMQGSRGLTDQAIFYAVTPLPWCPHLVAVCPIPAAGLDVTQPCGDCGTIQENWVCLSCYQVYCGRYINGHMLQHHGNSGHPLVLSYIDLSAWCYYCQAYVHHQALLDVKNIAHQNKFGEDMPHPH
Kind of assay: Inhibition of human HDAC6 using RHKKAc peptide as substrate.

Assay [3] is filed under the species Homo sapiens. As to the kind of experiment: Selectivity index, ratio of IC50 for human HDAC1 to IC50 for human HDAC6.
Assay [4] is filed under the species Homo sapiens. As to the kind of experiment: Selectivity index, ratio of IC50 for human HDAC2 to IC50 for human HDAC6.
The species entered for assay [5] is Homo sapiens. As to the kind of experiment: Selectivity index, ratio of IC50 for human HDAC3 to IC50 for human HDAC6.
The species named for assay [6] is Homo sapiens. As to the kind of experiment: Selectivity index, ratio of IC50 for human HDAC8 to IC50 for human HDAC6.
The species entered for assay [7] is Homo sapiens. As to the kind of experiment: Selectivity index, ratio of IC50 for human HDAC10 to IC50 for human HDAC6.

Histone deacetylase 3, sequence (O15379 whole entry): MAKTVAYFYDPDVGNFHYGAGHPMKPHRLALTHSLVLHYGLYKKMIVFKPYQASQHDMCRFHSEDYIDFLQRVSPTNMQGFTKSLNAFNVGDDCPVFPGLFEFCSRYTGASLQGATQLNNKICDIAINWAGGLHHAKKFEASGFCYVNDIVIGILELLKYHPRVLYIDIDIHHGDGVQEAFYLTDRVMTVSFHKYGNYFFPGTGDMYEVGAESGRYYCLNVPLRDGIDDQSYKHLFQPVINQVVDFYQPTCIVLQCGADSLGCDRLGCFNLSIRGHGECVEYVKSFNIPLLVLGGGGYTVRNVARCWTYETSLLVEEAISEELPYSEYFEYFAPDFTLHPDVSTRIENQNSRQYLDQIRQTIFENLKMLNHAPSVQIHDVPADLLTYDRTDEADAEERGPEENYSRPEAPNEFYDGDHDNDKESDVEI
Histone deacetylase 1, sequence (Q13547 whole entry): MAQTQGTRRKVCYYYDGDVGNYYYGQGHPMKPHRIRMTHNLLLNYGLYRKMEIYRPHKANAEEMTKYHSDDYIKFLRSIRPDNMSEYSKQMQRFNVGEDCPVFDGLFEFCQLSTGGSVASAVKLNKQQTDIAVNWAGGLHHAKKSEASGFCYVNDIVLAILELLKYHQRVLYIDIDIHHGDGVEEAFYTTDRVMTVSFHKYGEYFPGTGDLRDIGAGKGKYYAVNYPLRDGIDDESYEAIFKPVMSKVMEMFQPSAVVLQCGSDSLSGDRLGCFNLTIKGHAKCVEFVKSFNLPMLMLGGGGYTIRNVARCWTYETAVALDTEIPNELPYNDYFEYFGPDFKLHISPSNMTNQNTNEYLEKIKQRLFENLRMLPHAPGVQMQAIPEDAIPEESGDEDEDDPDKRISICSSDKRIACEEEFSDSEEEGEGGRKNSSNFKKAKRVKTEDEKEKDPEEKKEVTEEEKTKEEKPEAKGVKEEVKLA
Histone deacetylase 2, sequence (Q92769 whole entry): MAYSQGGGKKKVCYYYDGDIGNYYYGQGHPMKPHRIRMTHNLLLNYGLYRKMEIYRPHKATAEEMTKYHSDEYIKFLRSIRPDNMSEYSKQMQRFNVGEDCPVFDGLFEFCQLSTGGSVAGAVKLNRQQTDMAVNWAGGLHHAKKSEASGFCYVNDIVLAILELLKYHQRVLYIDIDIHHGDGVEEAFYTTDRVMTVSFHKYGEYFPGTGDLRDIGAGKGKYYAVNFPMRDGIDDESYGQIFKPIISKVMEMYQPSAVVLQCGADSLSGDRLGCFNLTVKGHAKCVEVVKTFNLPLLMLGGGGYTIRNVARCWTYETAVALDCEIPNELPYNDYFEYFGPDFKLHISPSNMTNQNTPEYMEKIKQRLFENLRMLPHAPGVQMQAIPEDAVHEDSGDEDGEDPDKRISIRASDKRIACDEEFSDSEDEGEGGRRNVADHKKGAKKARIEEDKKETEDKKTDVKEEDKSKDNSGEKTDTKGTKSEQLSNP

In the case of `COc1ccc(C(=O)c2ccc3c(ccn3S(=O)(=O)c3ccc(/C=C/C(=O)NO)cc3)c2)cc1`, the half-inhibitory concentration (IC50) (in general, the concentration needed to halve the response being measured) in assay [1] was more than 100000 nM; against Histone deacetylase 1, 7160 nM; against Histone deacetylase 2, more than 100000 nM; on Histone deacetylase 3 it was 2560 nM; against Histone deacetylase 8, 10000 nM; in [2], 848 nM. Further, the Ratio IC50 in the assay listed under Homo sapiens [3] was 8.4; in the assay filed under Homo sapiens [4] it was more than 118; in the assay listed under Homo sapiens [5] it was 3.01; in the assay filed under Homo sapiens [6] it was 11.8; in the assay filed under Homo sapiens [7], more than 118.

With `COc1cccc(C(=O)c2ccc3c(ccn3Cc3ccc(C(=O)NO)cc3)c2)c1`, the 50% inhibitory concentration (IC50) in assay [1] came to 47900 nM; at Histone deacetylase 1, 3790 nM; at Histone deacetylase 2, 5140 nM; on Histone deacetylase 3 it was 5090 nM; on Histone deacetylase 8 it was 1120 nM; in assay [2], 16.4 nM. Besides, the Ratio IC50 is 231 in the assay filed under Homo sapiens [3]; 313 in the assay filed under Homo sapiens [4]; 310 in the assay filed under Homo sapiens [5]; 68.3 in the assay listed under Homo sapiens [6]; 2920 in the assay listed under Homo sapiens [7].

In the case of `O=C(/C=C/c1cccc(S(=O)(=O)n2ccc3cc(C(=O)c4ccc(F)cc4)ccc32)c1)NO`, the concentration for half-maximal inhibition (IC50) worked out at 5240 nM in [1]; 230 nM against Histone deacetylase 1; 1800 nM against Histone deacetylase 2; 59.6 nM against Histone deacetylase 3; 2750 nM at Histone deacetylase 8; 1420 nM in assay [2]. Moreover, the Ratio IC50 in the assay listed under Homo sapiens [3] amounted to 0.16; in the assay listed under Homo sapiens [4], 1.3; in the assay filed under Homo sapiens [5], 0.04; in the assay filed under Homo sapiens [6] it was 1.9; in the assay filed under Homo sapiens [7], 3.7.

With `COc1cc(C(=O)c2ccc3c(ccn3S(=O)(=O)c3cccc(/C=C/C(=O)NO)c3)c2)cc(OC)c1OC`, the IC50 was more than 100000 nM in assay [1]; 1320 nM against Histone deacetylase 1; 1770 nM on Histone deacetylase 2; more than 100000 nM against Histone deacetylase 3; 1260 nM on Histone deacetylase 8; 562 nM in assay [2]. Besides, the Ratio IC50 in the assay listed under Homo sapiens [3] is 2.3; in the assay listed under Homo sapiens [4], 3.1; in the assay filed under Homo sapiens [5] it was more than 178; in the assay filed under Homo sapiens [6], 2.2; in the assay listed under Homo sapiens [7], more than 178.

For `COc1cc(C(=O)c2ccc3c(ccn3Cc3ccc(/C=C/C(=O)NO)cc3)c2)cc(OC)c1OC`, the IC50 at Histone deacetylase 1 stood at 3480 nM; against Histone deacetylase 2, 5740 nM; against Histone deacetylase 8, 2170 nM; in [2] it was 143 nM. For the same compound, the Ratio IC50 in the assay filed under Homo sapiens [3] was determined as 24.3; in the assay filed under Homo sapiens [4], 40.1; in the assay listed under Homo sapiens [6], 15.2.

Regarding `Cc1ccc(C(=O)c2ccc3c(ccn3Cc3ccc(C(=O)NO)cc3)c2)cc1`, the half-inhibitory concentration (IC50) is more than 100000 nM in [1]; 3120 nM at Histone deacetylase 1; 7250 nM on Histone deacetylase 2; 3910 nM on Histone deacetylase 3; 1490 nM against Histone deacetylase 8; 11.9 nM in assay [2]. The Ratio IC50 in the assay listed under Homo sapiens [3] is 262; in the assay filed under Homo sapiens [4], 609; in the assay filed under Homo sapiens [5], 329; in the assay filed under Homo sapiens [6], 125; in the assay filed under Homo sapiens [7], more than 8400.

For the compound `COc1ccc(C(=O)c2ccc3c(ccn3Cc3ccc(/C=C/C(=O)NO)cc3)c2)cc1`, the 50% inhibitory concentration (IC50) was 7050 nM in [1]; 1440 nM against Histone deacetylase 1; 1950 nM on Histone deacetylase 2; 2050 nM against Histone deacetylase 3; 2810 nM at Histone deacetylase 8; 108 nM in assay [2]. The Ratio IC50 in the assay listed under Homo sapiens [3] stood at 13.3; in the assay listed under Homo sapiens [4], 18.1; in the assay filed under Homo sapiens [5], 19; in the assay filed under Homo sapiens [6] it was 26; in the assay listed under Homo sapiens [7], 65.3.

As to `COc1ccc(C(=O)c2ccc3c(ccn3S(=O)(=O)c3cccc(/C=C/C(=O)NO)c3)c2)cc1OC`, the IC50 in assay [1] is 8240 nM; against Histone deacetylase 1, 877 nM; at Histone deacetylase 2 it was 2140 nM; against Histone deacetylase 3, 861 nM; at Histone deacetylase 8, 1420 nM; in [2], 1180 nM. The Ratio IC50 came out at 0.7 in the assay filed under Homo sapiens [3]; 1.8 in the assay listed under Homo sapiens [4]; 0.7 in the assay listed under Homo sapiens [5]; 1.2 in the assay listed under Homo sapiens [6]; 6.9 in the assay listed under Homo sapiens [7].

For the compound `COc1cc(C(=O)c2ccc3c(ccn3S(=O)(=O)c3ccc(/C=C/C(=O)NO)cc3)c2)cc(OC)c1OC`, the IC50 in assay [1] was more than 100000 nM; at Histone deacetylase 1, 8540 nM; against Histone deacetylase 2, 11600 nM; against Histone deacetylase 3, 996 nM; on Histone deacetylase 8, 5340 nM; in assay [2], 972 nM. The Ratio IC50 in the assay filed under Homo sapiens [3] was 8.8; in the assay listed under Homo sapiens [4] it was 11.9; in the assay listed under Homo sapiens [5], 1.02; in the assay filed under Homo sapiens [6], 5.5; in the assay listed under Homo sapiens [7], more than 103.

As to `COc1ccc(C(=O)c2ccc3c(ccn3S(=O)(=O)c3cccc(/C=C/C(=O)NO)c3)c2)cc1`, the IC50 came to 5890 nM in assay [1]; 1460 nM on Histone deacetylase 1; 424 nM against Histone deacetylase 2; 232 nM at Histone deacetylase 3; 812 nM against Histone deacetylase 8; 751 nM in assay [2]. Moreover, the Ratio IC50 is 1.7 in the assay listed under Homo sapiens [3]; 0.6 in the assay listed under Homo sapiens [4]; 0.3 in the assay listed under Homo sapiens [5]; 1.1 in the assay filed under Homo sapiens [6]; 7.8 in the assay listed under Homo sapiens [7].

In assay [2], `COc1cc(C(=O)c2ccc3c(ccn3Cc3ccc(C(=O)NO)cc3)c2)cc(OC)c1OC` came in with an IC50 of 1540 nM.

On to `COc1cccc(C(=O)c2ccc3c(ccn3S(=O)(=O)c3cccc(/C=C/C(=O)NO)c3)c2)c1`, for which the IC50 was found to be 7740 nM in [1]; 1210 nM against Histone deacetylase 1; 4800 nM at Histone deacetylase 2; 323 nM at Histone deacetylase 3; 3530 nM against Histone deacetylase 8; 1810 nM in assay [2]. Besides, the Ratio IC50 in the assay filed under Homo sapiens [3] stood at 0.7; in the assay listed under Homo sapiens [4], 2.7; in the assay listed under Homo sapiens [5], 0.2; in the assay listed under Homo sapiens [6] it was 1.9; in the assay listed under Homo sapiens [7] it was 4.3.
